How the values were obtained:
LNCaP = test system: LNCaP; set-up: method as in PMID 18008333, PMID 23300633; details: intraperitoneal 50 mg/kg; LNCaP xenograft mouse; cited from earlier work
mouse ANO2 = molecular target: T1, mouse ANO2 (Mus musculus, UniProt Q8CFW1); test: YFP quenching assay in FRT cells expressing mouse ANO2; type: cell-based; details: FRT cells expressing mouse ANO2 and YFP; read-out: IC50, ATP-induced activation of ANO2
T1 construct: expressed in transfected cells; host or cells: Fisher rat thyroid (FRT) cells, stably transfected, co-expressing halide sensor YFP
T1 sequence (Q8CFW1 1-1002): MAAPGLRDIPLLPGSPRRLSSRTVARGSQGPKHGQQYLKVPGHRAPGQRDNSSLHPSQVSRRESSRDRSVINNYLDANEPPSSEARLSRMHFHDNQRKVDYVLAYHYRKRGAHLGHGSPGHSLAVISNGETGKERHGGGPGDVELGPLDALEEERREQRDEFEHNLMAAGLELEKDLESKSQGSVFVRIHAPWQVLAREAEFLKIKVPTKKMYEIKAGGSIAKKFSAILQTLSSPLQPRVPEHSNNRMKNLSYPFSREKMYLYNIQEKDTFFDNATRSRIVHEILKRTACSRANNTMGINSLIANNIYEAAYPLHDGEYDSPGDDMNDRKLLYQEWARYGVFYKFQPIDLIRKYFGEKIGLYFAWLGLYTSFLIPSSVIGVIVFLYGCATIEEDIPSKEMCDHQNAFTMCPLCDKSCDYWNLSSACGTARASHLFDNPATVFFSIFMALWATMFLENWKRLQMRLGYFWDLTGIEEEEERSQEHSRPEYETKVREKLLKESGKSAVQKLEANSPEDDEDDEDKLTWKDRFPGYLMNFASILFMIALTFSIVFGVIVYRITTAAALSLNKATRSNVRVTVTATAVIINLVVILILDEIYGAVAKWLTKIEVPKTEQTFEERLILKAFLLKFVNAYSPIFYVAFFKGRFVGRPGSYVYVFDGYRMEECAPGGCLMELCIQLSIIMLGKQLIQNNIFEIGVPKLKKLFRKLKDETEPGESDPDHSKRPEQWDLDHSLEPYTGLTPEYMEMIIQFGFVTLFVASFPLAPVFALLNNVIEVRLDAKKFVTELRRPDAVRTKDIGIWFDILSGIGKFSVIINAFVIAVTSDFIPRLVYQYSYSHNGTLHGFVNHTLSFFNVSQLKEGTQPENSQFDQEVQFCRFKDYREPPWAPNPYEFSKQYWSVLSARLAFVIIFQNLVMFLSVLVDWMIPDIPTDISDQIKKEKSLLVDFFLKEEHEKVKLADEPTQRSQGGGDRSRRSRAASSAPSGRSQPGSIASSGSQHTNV
Protocol: Fisher rat thyroid (FRT) cells were stably transfected with human ANO1 (abc) or mouse ANO2 and the halide sensor YFP as described in previous study. FRT cells were cultured in Coon`s modified F12 medium with 10% FBS, 2 mM L-glutamine, 100 units/ml penicillin and 100 μg/ml streptomycin at 37°C and 5% CO2. PC-3 cells were grown in RPMI 1640 medium supplemented with 10% FBS, 100 units/ml penicillin and 100 μg/ml streptomycin at 37°C and 5% CO2. There were populations of PC-3 cells with high and low expression of ANO1. […]
ANO1 and YFP expressing FRT cells were plated in 96-well black-walled microplates (Corning Inc., Corning, NY) at a density of 20,000 cells per well. Assays were done using FLUOstar Omega microplate reader (BMG Labtech, Ortenberg, Germany) and MARS Data Analysis Software (BMG Labtech) as described in our previous study. […] After 10 minutes incubation at 37°C, 96-well plates were transferred to the plate reader for fluorescence assay. Each well was assayed individually for ANO1-mediated I^- influx by monitoring YFP fluorescence continuously (400 ms per point) for 2 s (baseline), then 140 mM I^- solution containing 200 μM ATP was added at 2 s and then YFP fluorescence was recorded for 6 s. Initial iodide influx rate was determined from the initial slope of fluorescence decrease, by nonlinear regression, following infusion of iodide with ATP.

PC-3 = test system: PC-3; set-up: method as in PMID 18008333, PMID 23300633; details: intraperitoneal 10 mg/kg; PC-3 xenograft mouse; cited from earlier work

O=c1cc(-c2ccc(O)c(O)c2)oc2cc(O)cc(O)c12 [luteolin]
Volume and weight of solid tumors (LNCaP): significantly decreased
IC50 (mouse ANO2): ~120 µM
Volume and weight of solid tumors (PC-3): significantly decreased

Source: paper PMC5376326, “Inhibition of ANO1 by luteolin and its cytotoxicity in human prostate cancer PC-3 cells” (PLoS ONE, 2017)
